{"source": "patent US20180221332A1", "about": "“Flash-Melt Cannabinoid Formulations” (CannTab Therapeutics Limited, priority 2017, published 2018)", "origin": "cited, not measured here", "key": {"[1]": {"settings": "after administration"}, "[2]": {"settings": "NICHD/FDA Oral Formulations Platform Report 1; low solubility, unknown permeability"}}}
{"smiles": "CCCCCc1cc(O)c2c(c1)OC(C)(C)[C@@H]1CCC(C)=C[C@@H]21", "note": "[Dronabinol, (−)-trans-Δ^9-tetrahydrocannabinol]", "values": [{"measurement": "duration of appetite stimulant effect", "setting": "[1]", "value": "≥ 24", "unit": "h"}, {"measurement": "biopharmaceutics class", "setting": "[2]", "value": "class 2 or class 4"}]}
